Results on one molecule are retold here after patent US20110207726A1, “Inhibitors of Human Cathepsin L, Cathepsin B, and Cathepsin S” (The Trustees of the University of Pennsylvania, priority 2008, published 2011).

In this experiment the target is T1, human cathepsin K (Homo sapiens, UniProt P43235).
T1 construct: purchased Calbiochem 342001
T1 sequence (P43235 115-329): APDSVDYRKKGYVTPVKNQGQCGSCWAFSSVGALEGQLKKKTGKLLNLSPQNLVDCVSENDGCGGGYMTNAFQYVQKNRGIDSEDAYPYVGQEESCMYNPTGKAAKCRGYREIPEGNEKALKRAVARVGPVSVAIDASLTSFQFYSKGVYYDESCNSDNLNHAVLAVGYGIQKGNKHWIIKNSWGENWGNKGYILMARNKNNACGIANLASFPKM
The experiment in a line: Selectivity assay, cathepsin K. The format is biochemical. As to the method: Compound No. 1 was assayed for inhibition against papain and cathepsins B, G, K, S, and V. Papain from Carica papaya (Calbiochem 5125, 11 ng/mL), human cathepsin K (Calbiochem 342001, 35 ng/mL), human spleen cathepsin S (Calbiochem 219344, 40 ng/mL), and human cathepsin V (Calbiochem 219467, 39 ng/ml) were assayed using Z-Phe-Arg-AMC substrate at 20 μM, 20 μM, 15 μM, and 1 μM, respectively. Human liver cathepsin B (Calbiochem 219362, 65 ng/mL) was assayed using 15 μM Z-Arg-Arg-AMC substrate (Bachem I-1135). Human neutrophil cathepsin G (Calbiochem 219373, 4.2 μg/mL) was assayed using 15 μM Suc-Ala-Ala-Pro-Phe-AMC substrate (Sigma S9761). All reactions were performed in 20 mM sodium acetate buffer containing 5 mM cysteine and 1 mM EDTA, pH 5.5. Reaction progress was monitored using the Envision microplate reader. IC50 values were measured in triplicate.

Read-outs that look alike come from different tables or passages of the source.

For the molecule `CCc1ccccc1NC(=O)CSC(=O)NNC(=O)[C@H](Cc1c[nH]c2ccccc12)NC(=O)OC(C)(C)C` [Compound No. 1], the half-maximal inhibitory concentration (IC50) (as a rule, the concentration that inhibits the measured activity by half) stood at 17.6 ± 1.04 µM. In addition, the “Selectivity Index @ 10 min” value (Cathepsin K vs cathepsin L, 10 min) came to 114. Moreover, the “Selectivity Index @ 30 min” value (Cathepsin K vs cathepsin L, 30 min) came to 113. For the same molecule, the “Selectivity Index @ 60 min” value (Cathepsin K vs cathepsin L, 60 min) worked out at 151. The “Selectivity Index @ 90 min” value (Cathepsin K vs cathepsin L, 90 min) is on record as 137. Further, under “Cathepsin K vs cathepsin L, over 10-90 min”, the “Selectivity Index” value is 113-151. Also, for the setting “Cathepsin K, no preincubation, 30 min, read-out: IC50 @ 30 min”, the IC50 came to 8.46 ± 0.366 µM. The IC50 (Cathepsin K, no preincubation, 60 min, read-out: IC50 @ 60 min) came out at 8.44 ± 0.14 µM. Also, the IC50 (Cathepsin K, no preincubation, 90 min, read-out: IC50 @ 90 min) came to 6.857 ± 0.063 µM.
